The text below walks through data of patent US20240409585A1, “MACROCYCLIC IMMUNOMODULATORS” (priority 2021, published 2024).

For this assay, the target named is T1, PE-labeled human PD-L1-Ig binding to Jurkat cell line over-expressing human PD-1 (Jurkat-PD-1) (Homo sapiens, UniProt Q15116).
T1 construct: expressed in transfected cells; host or cells: Jurkat
As to the kind of experiment: Jurkat-PD-1 Cell Binding High-Content Screening Assay (CBA): Method 1. To be noted: Jurkat-hPD-1 cells, PE-labeled PD-L1-Ig 20 nM final.

[1] abbreviates: read-out: Jurkat HPDL1 PD1 IC50 (uM) (Method 1).

Like-named read-outs stand apart in the source and are kept apart here. Numbered stars: 1 amine (or outer) side, 2 acyl side, 3 side chain; on linkers, the order of the positions; unused ones are H or OH. Bridge positions count the residues as written; N and C are the ends. Square brackets hold non-standard residues; d marks the D form. Peptide text beside a SMILES is read from it. * marks the point of attachment. ξ: configuration not given here. X21 = CN(C)P(=O)(Oc1ccc(C[C@H](N[*:1])C(=O)[*:2])cc1)N(C)C; X25 = N#CCCc1ccc(-c2ccc(C[C@H](N[*:1])C(=O)[*:2])cc2)cc1; Phe(4-COOH) = N[C@@H](Cc1ccc(C(=O)O)cc1)C(=O)O; Phe(4-CH2NH2) = NCc1ccc(C[C@H](N)C(=O)O)cc1; Bip = N[C@@H](Cc1ccc(-c2ccccc2)cc1)C(=O)O; Phe(3-Me) = Cc1cccc(C[C@H](N)C(=O)O)c1; Val(3-OH) = CC(C)(O)[C@H](N)C(=O)O; 4Pal = N[C@@H](Cc1ccncc1)C(=O)O; 2Thi = N[C@@H](Cc1cccs1)C(=O)O; Cha = N[C@@H](CC1CCCCC1)C(=O)O; Cit = NC(=O)NCCC[C@H](N)C(=O)O; Ile(3ξ) = CCC(C)[C@H](N)C(=O)O; Thr(3ξ) = CC(O)[C@H](N)C(=O)O; Dap(Me) = CNC[C@H](N)C(=O)O; Carboxymethyl = O=C(O)C*; NMeA = CN[C@@H](C)C(=O)O; Pra = C#CC[C@H](N)C(=O)O; dAbu = CC[C@@H](N)C(=O)O; Dab = NCC[C@H](N)C(=O)O; Dap = NC[C@H](N)C(=O)O; ξN = NC(=O)CC(N)C(=O)O

T1 sequence (Q15116 25-288): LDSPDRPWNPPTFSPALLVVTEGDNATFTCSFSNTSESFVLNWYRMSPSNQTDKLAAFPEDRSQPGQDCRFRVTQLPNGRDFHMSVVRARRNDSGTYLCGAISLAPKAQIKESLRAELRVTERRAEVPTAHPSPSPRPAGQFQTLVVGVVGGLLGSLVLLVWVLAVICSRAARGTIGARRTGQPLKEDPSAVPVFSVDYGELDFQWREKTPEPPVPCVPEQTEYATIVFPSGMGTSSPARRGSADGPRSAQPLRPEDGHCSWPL

The term IC50 denotes the concentration that inhibits the measured activity by half. Consider `CC[C@H](C)[C@@H]1NC(=O)[C@H](Cc2ccc(-c3ccccc3)cc2)NC(=O)[C@H](C(C)C)NC(=O)[C@H](Cc2cccc(C)c2)NC(=O)[C@H](CC(=O)O)NC(=O)[C@H](Cc2ccncc2)NC(=O)[C@H](CN)NC(=O)CSC[C@@H](C(=O)N[C@@H](C)C(N)=O)NC(=O)[C@H]([C@@H](C)O)NC(=O)[C@H](C(C)C)NC(=O)[C@H](CC(C)C)NC(=O)[C@H](CCN)NC(=O)[C@@H](CC(C)C)NC(=O)[C@H](C)N(C)C1=O` [Compound 1544] ({CH2CO}-[Dap][4Pal]D[Phe(3-Me)]V[Bip]I[NMeA][dL][Dab]LVTCA-NH2; thioether N-14), for which the IC50 under setting [1] was found to be 0.01 µM. Same read-out and setting: the same measure for `CC(C)C[C@@H]1NC(=O)[C@H](Cc2c[nH]c3ccccc23)NC(=O)[C@H](CC(=O)O)NC(=O)[C@H](Cc2ccc(C(=O)O)cc2)NC(=O)[C@H](Cc2ccc(OCC(=O)O)cc2)NC(=O)CSC[C@@H](C(=O)NC(CC(N)=O)C(N)=O)NC(=O)[C@H](CO)NC(=O)[C@H](C(C)C)NC(=O)[C@H](CC2CCCCC2)NC(=O)[C@H](CCN)NC(=O)[C@@H](CC(C)C)NC(=O)[C@H](C)N(C)C(=O)[C@H](C(C)C)NC(=O)[C@H](Cc2ccc(-c3ccccc3)cc2)NC1=O` (stereo partly drawn) [Compound 1912] ({CH2CO}-Y(Carboxymethyl)[Phe(4-COOH)]DWL[Bip]V[NMeA][dL][Dab][Cha]VSC[ξN]-NH2; thioether N-14): 0.02 µM; for `CC[C@H]1NC(=O)[C@H](C)N(C)C(=O)[C@H](C(C)C)NC(=O)[C@H](Cc2ccc(-c3ccccc3)cc2)NC(=O)[C@H](CC(C)C)NC(=O)[C@H](Cc2c[nH]c3ccccc23)NC(=O)[C@H](CC(=O)O)NC(=O)[C@H](Cc2ccc(O)cc2)NC(=O)[C@H](Cc2ccccc2)NC(=O)CSC[C@@H](C(=O)N[C@@H](C)C(N)=O)NC(=O)[C@H](CO)NC(=O)[C@H](C(C)C)NC(=O)[C@H](CC(C)C)NC(=O)[C@H](CC(N)=O)NC1=O` [Compound 1763] ({CH2CO}-FYDWL[Bip]V[NMeA][dAbu]NLVSCA-NH2; thioether N-14): 0.04 µM. On the same count and under the same terms, the same measure for `CNC[C@@H]1NC(=O)CSC[C@@H](C(=O)N[C@@H](C)C(N)=O)NC(=O)[C@H](C(C)O)NC(=O)[C@H](C(C)C)NC(=O)[C@H](CC(C)C)NC(=O)[C@H](CCN)NC(=O)[C@@H](CC(C)C)NC(=O)[C@H](C)N(C)C(=O)[C@H](CCCNC(N)=O)NC(=O)[C@H](Cc2ccc(-c3ccccc3)cc2)NC(=O)[C@H](C(C)C)NC(=O)[C@H](Cc2c[nH]c3ccccc23)NC(=O)[C@H](CC(=O)O)NC(=O)[C@H](Cc2ccc(O)cc2)NC1=O` (stereo partly drawn) [Compound 2034] ({CH2CO}-[Dap(Me)]YDWV[Bip][Cit][NMeA][dL][Dab]LV[Thr(3ξ)]CA-NH2; thioether N-14): 0.06 µM; for `CC(C)C[C@@H]1NC(=O)[C@H](Cc2c[nH]c3ccccc23)NC(=O)[C@H](CC(=O)O)NC(=O)[C@H](Cc2ccc(C(=O)O)cc2)NC(=O)[C@H](Cc2ccccc2)NC(=O)CSC[C@@H](C(=O)N[C@@H](C)C(N)=O)NC(=O)[C@H](CO)NC(=O)[C@H](C(C)C)NC(=O)[C@H](CC(C)C)NC(=O)[C@H](CCCCN)NC(=O)[C@@H](C)NC(=O)[C@H](C)N(C)C(=O)[C@H](CCC(=O)O)NC(=O)[C@H](Cc2ccc(-c3ccccc3)cc2)NC1=O` [Compound 1746] ({CH2CO}-F[Phe(4-COOH)]DWL[Bip]E[NMeA][dA]KLVSCA-NH2; thioether N-14): 0.02 µM. On to `CC[C@H](C)[C@@H]1NC(=O)[C@H](Cc2ccc(-c3ccccc3)cc2)NC(=O)[C@H](C(C)C)NC(=O)[C@H](Cc2c[nH]c3ccccc23)NC(=O)[C@H](CC(=O)O)NC(=O)[C@H](Cc2ccc(C(=O)O)cc2)NC(=O)[C@H](CN)NC(=O)CSC[C@@H](C(=O)N[C@@H](C)C(N)=O)NC(=O)[C@H]([C@@H](C)O)NC(=O)[C@H](C(C)C)NC(=O)[C@H](CC(C)C)NC(=O)[C@H](CCN)NC(=O)[C@@H](CC(C)C)NC(=O)[C@H](C)N(C)C1=O` [Compound 1412] ({CH2CO}-[Dap][Phe(4-COOH)]DWV[Bip]I[NMeA][dL][Dab]LVTCA-NH2; thioether N-14), for which the IC50 under setting [1] turned out to be 0.05 µM. Take `Cc1cccc(C[C@@H]2NC(=O)[C@H](CC(=O)O)NC(=O)[C@H](Cc3ccc(OCC(=O)O)cc3)NC(=O)[C@H](Cc3ccncc3)NC(=O)CSC[C@@H](C(N)=O)NC(=O)[C@H](CCC(=O)O)NC(=O)[C@H](C(C)C)NC(=O)[C@H](CC3CCCCC3)NC(=O)[C@H](CCN)NC(=O)[C@@H](CC(C)C)NC(=O)[C@H](C)N(C)C(=O)[C@H](Cc3ccc(OCC(=O)O)cc3)NC(=O)[C@H](Cc3ccc(-c4ccccc4)cc3)NC(=O)[C@H](Cc3ccc(OCC(=O)O)cc3)NC2=O)c1` [Compound 1661] ({CH2CO}-[4Pal]Y(Carboxymethyl)D[Phe(3-Me)]Y(Carboxymethyl)[Bip]Y(Carboxymethyl)[NMeA][dL][Dab][Cha]VEC-NH2; thioether N-14): under setting [1], the half-maximal inhibitory concentration (IC50) is 0.05 µM. Still for that read-out and setting: for `CCC(C)[C@@H]1NC(=O)[C@H](Cc2ccc(-c3ccccc3)cc2)NC(=O)[C@H](C(C)C)NC(=O)[C@H](Cc2c[nH]c3ccccc23)NC(=O)[C@H](CC(=O)O)NC(=O)[C@H](Cc2ccc(O)cc2)NC(=O)[C@H](Cc2ccncc2)NC(=O)CSC[C@@H](C(=O)N[C@@H](C)C(N)=O)NC(=O)[C@H](C(C)O)NC(=O)[C@H](C(C)C)NC(=O)[C@H](CC2CCCCC2)NC(=O)[C@H](Cc2ccc(CN)cc2)NC(=O)[C@@H](CC(C)C)NC(=O)[C@H](C)N(C)C1=O` (stereo partly drawn) [Compound 2049] ({CH2CO}-[4Pal]YDWV[Bip][Ile(3ξ)][NMeA][dL][Phe(4-CH2NH2)][Cha]V[Thr(3ξ)]CA-NH2; thioether N-14) the value was 0.09 µM.

Regarding `CC(C)C[C@@H]1NC(=O)[C@H](CCN)NC(=O)[C@@H](CC(C)C)NC(=O)[C@H](C)N(C)C(=O)[C@H](CCCNC(=N)N)NC(=O)[C@H](Cc2ccc(-c3ccc(CCC#N)cc3)cc2)NC(=O)[C@H](C(C)C)NC(=O)[C@H](Cc2c[nH]c3ccccc23)NC(=O)[C@H](CC(=O)O)NC(=O)[C@H](Cc2ccc(O)cc2)NC(=O)[C@H](CC(N)=O)NC(=O)CSC[C@@H](C(=O)N[C@@H](C)C(N)=O)NC(=O)[C@H]([C@@H](C)O)NC(=O)[C@H](C(C)C)NC1=O` [Compound 1213] ({CH2CO}-NYDWV[X25]R[NMeA][dL][Dab]LVTCA-NH2; thioether N-14), the IC50 under setting [1] was 0.25 µM.

On to `CC(C)C[C@@H]1NC(=O)[C@H](CCN)NC(=O)[C@@H](CC(C)C)NC(=O)[C@H](C)N(C)C(=O)[C@H](CCCNC(=N)N)NC(=O)[C@H](Cc2ccc(-c3ccccc3)cc2)NC(=O)[C@H](C(C)C)NC(=O)[C@H](Cc2cccs2)NC(=O)[C@H](CC(=O)O)NC(=O)[C@H](Cc2ccc(O)cc2)NC(=O)[C@H](CC(N)=O)NC(=O)CSC[C@@H](C(=O)N[C@@H](C)C(N)=O)NC(=O)[C@H]([C@@H](C)O)NC(=O)[C@H](C(C)C)NC1=O` [Compound 1218] ({CH2CO}-NYD[2Thi]V[Bip]R[NMeA][dL][Dab]LVTCA-NH2; thioether N-14), for which the concentration for half-maximal inhibition (IC50) under setting [1] came out at 0.2 µM.

For the molecule `C#CC[C@H](NC(=O)[C@@H](C)NC(=O)[C@@H]1CSCC(=O)N[C@@H](Cc2ccc(OCC(=O)O)cc2)C(=O)N[C@@H](Cc2ccc(C(=O)O)cc2)C(=O)N[C@@H](CC(=O)O)C(=O)N[C@@H](Cc2c[nH]c3ccccc23)C(=O)N[C@@H](CC(C)C)C(=O)N[C@@H](Cc2ccc(-c3ccccc3)cc2)C(=O)N[C@@H](C(C)C)C(=O)N(C)[C@@H](C)C(=O)N[C@H](CC(C)C)C(=O)N[C@@H](CCN)C(=O)N[C@@H](CC2CCCCC2)C(=O)N[C@@H](C(C)(C)O)C(=O)N[C@@H](CO)C(=O)N1)C(N)=O` [Compound 1940] ({CH2CO}-Y(Carboxymethyl)[Phe(4-COOH)]DWL[Bip]V[NMeA][dL][Dab][Cha][Val(3-OH)]SC[dA][Pra]-NH2; thioether N-14), under setting [1], the IC50 was determined as 0.02 µM. `CC(C)C[C@@H]1NC(=O)[C@H](Cc2c[nH]c3ccccc23)NC(=O)[C@H](CC(=O)O)NC(=O)[C@H](Cc2ccc(OP(=O)(N(C)C)N(C)C)cc2)NC(=O)[C@H](Cc2ccccc2)NC(=O)CSC[C@@H](C(=O)N[C@@H](C)C(N)=O)NC(=O)[C@H](CO)NC(=O)[C@H](C(C)C)NC(=O)[C@H](CC(C)C)NC(=O)[C@H](CC(N)=O)NC(=O)[C@@H](C)NC(=O)[C@H](C)N(C)C(=O)[C@H](C(C)C)NC(=O)[C@H](Cc2ccc(-c3ccccc3)cc2)NC1=O` [Compound 1764] ({CH2CO}-F[X21]DWL[Bip]V[NMeA][dA]NLVSCA-NH2; thioether N-14) gave a half-inhibitory concentration (IC50) (Jurkat HPDL1 PD1 IC50 (uM) (Method 1)) of 0.04 µM. For `Cc1cccc(C[C@@H]2NC(=O)[C@H](CC(=O)O)NC(=O)[C@H](Cc3ccc(OCC(=O)O)cc3)NC(=O)[C@H](Cc3ccncc3)NC(=O)CSC[C@@H](C(N)=O)NC(=O)[C@H](CCC(N)=O)NC(=O)[C@H](C(C)C)NC(=O)[C@H](CC3CCCCC3)NC(=O)[C@H](CCN)NC(=O)[C@@H](CC(C)C)NC(=O)[C@H](C)N(C)C(=O)[C@H](Cc3ccc(OCC(=O)O)cc3)NC(=O)[C@H](Cc3ccc(-c4ccccc4)cc3)NC(=O)[C@H](Cc3ccc(OCC(=O)O)cc3)NC2=O)c1` [Compound 1659] ({CH2CO}-[4Pal]Y(Carboxymethyl)D[Phe(3-Me)]Y(Carboxymethyl)[Bip]Y(Carboxymethyl)[NMeA][dL][Dab][Cha]VQC-NH2; thioether N-14), the IC50 under setting [1] was found to be 0.03 µM.

In the case of `CC[C@H](C)[C@@H]1NC(=O)[C@H](Cc2ccc(-c3ccccc3)cc2)NC(=O)[C@H](C(C)C)NC(=O)[C@H](Cc2c[nH]c3ccccc23)NC(=O)[C@H](CC(=O)O)NC(=O)[C@H](Cc2ccc(C(=O)O)cc2)NC(=O)[C@H](Cc2ccncc2)NC(=O)CSC[C@@H](C(=O)N[C@@H](C)C(N)=O)NC(=O)[C@H]([C@@H](C)O)NC(=O)[C@H](C(C)C)NC(=O)[C@H](CC(C)C)NC(=O)[C@H](CCN)NC(=O)[C@@H](CC(C)C)NC(=O)[C@H](C)N(C)C1=O` [Compound 1411] ({CH2CO}-[4Pal][Phe(4-COOH)]DWV[Bip]I[NMeA][dL][Dab]LVTCA-NH2; thioether N-14), the half-maximal inhibitory concentration (IC50) under setting [1] was 0.02 µM.
